Laboratory results published in paper PMC4941945 (Current protocols in pharmacology / editorial board, S.J. …, 2015).
Where two headings read alike, the source gives them in different places.

Assays:
sigma-2 receptor (S2R) = conditions: read-out: KI S2R, cited from earlier work
sigma-1 receptor (S1R) = conditions: read-out: KI S1R, cited from earlier work
S1R knockout mice = conditions: ref Fontanilla et al., 2009; cited from earlier work
S1R + S2R = assay: Saturation binding of [3H]-DTG in rat liver; conditions: RL membranes
[1] = ref 1 Matsumoto RR et al. (1995) EJP 280: 301-310
[2] = ref 2 Fontanilla D et al. (2009) Science 323(5916): 934-937
[3] = ref 8 Husbands SM et al (1997) J Med Chem 40:4340-4346

For `CN(C)CCN(C)CCc1ccc(Cl)c(Cl)c1` [BD1047], which Ki (sigma-2 receptor (S2R); [1]) is on record?
Its Ki is 47 nM.

And the Ki (sigma-1 receptor (S1R); [1])?
The Ki was 0.93 nM.

Which Ki (sigma-2 receptor (S2R); [1]) does the source give for `CN1CCN(CCc2ccc(Cl)c(Cl)c2)CC1` [BD1063] here?
Its Ki is 449 nM.

And the Ki (sigma-1 receptor (S1R); [1])?
The Ki was 9.2 nM.

What does the source list for `CN(C)CCc1c[nH]c2ccccc12` [Dimethyltryptamine, N,N-dimethyltryptamine]?
response in a behavioral assay measuring motor coordination (S1R knockout mice): failed to respond; Ki (sigma-2 receptor (S2R); [2]): 21700 nM; Ki (sigma-1 receptor (S1R); [2]): 14700 nM

For `O=C(OCCN1CCOCC1)C1(c2ccccc2)CCCCC1` [PRE-084], which Ki (sigma-2 receptor (S2R); ref 6 Maurice T. et al. (1999) Br J Pharmacol 127(2): 335-342) is on record?
Its Ki is 13100 nM.

What does the source list for `C[C@@H]1CN(CCCn2c3ccccc3c3ccccc32)C[C@H](C)N1` [Rimcazole]?
Ki (sigma-2 receptor (S2R); [3]): 386 nM; Ki (sigma-1 receptor (S1R); [3]): […]

For `Cc1ccccc1NC(=N)Nc1ccccc1C` [[^3H]-DTG, [^3H]-1,3-di(2-tolyl)guanidine], which “S1R + S2R Binding, Specific Binding” value (S1R + S2R; measured [3H]-DTG concentration 0.25 nM) is on record?
Its value is 0.44 pmol/mg.

What about the “S1R + S2R Binding, Specific Binding” value (S1R + S2R; measured [3H]-DTG concentration 0.8 nM) of the same compound?
Its value is 0.94 pmol/mg.

What about the “S1R + S2R Binding, Specific Binding” value (S1R + S2R; measured [3H]-DTG concentration 2.7 nM) of the same compound?
Its value is 2.21 pmol/mg.

What about the “S1R + S2R Binding, Specific Binding” value (S1R + S2R; measured [3H]-DTG concentration 9 nM) of the same compound?
The value was 6.52 pmol/mg.

And the “S1R + S2R Binding, Specific Binding” value (S1R + S2R; measured [3H]-DTG concentration 27 nM)?
Its value is 11.36 pmol/mg.

And the “S1R + S2R Binding, Specific Binding” value (S1R + S2R; measured [3H]-DTG concentration 92 nM)?
The value was 18.55 pmol/mg.

And the “S1R + S2R Binding, Specific Binding” value (S1R + S2R; measured [3H]-DTG concentration 310 nM)?
Its value is 20.14 pmol/mg.
